Values quoted from earlier work, collected in patent publication US8496960B2 (Purdue Pharma L.P., priority 2001, dated 2013).

Columns and labels:
[1] = following oral administration

- first-pass effect (following oral administration): minimal
- effect of food on bioavailability (oral, with food): no significant effect
SMILES: COc1cc2nc(N3CCN(C(=O)C4CCCO4)CC3)nc(N)c2cc1OC (stereo not drawn) [terazosin]
- time to antihypertensive effects [1]: ≤ 15 min
